Consider 3 compounds from US20120303115A1 (priority 2011, published 2012).

A short description of data set [1]: Percent drug content change of coated cobalt-chromium stent, 0 to 12 weeks (FIG. 1). Format: physicochemical. Particulars: 0.02 weight percent BHT per total basecoat solids; sirolimus and polymer on 18 mm stent; 8 weeks and 12 weeks, ambient conditions (25° C.). The text has this: Referring to FIG. 1, there is illustrated in graphical format, the results of the same drug screening as described above with the solution applied to a cobalt-chromium, 18 mm stent. In this test, two sets of solution samples were utilized, one with sirolimus and polymer solution containing the antioxidant and one with sirolimus and polymer solution containing no antioxidant. The antioxidant utilized was 0.02 weight percent BHT per total basecoat solids. The test was utilized to determine the percent drug content change over a time period of 0 to 12 weeks under two conditions; namely, 40° C. with 75 percent relative humidity, and ambient conditions (25° C.).

How the values of data set [2] were obtained: Table 9, shown below, summarizes a number of injectable liquid formulations of paclitaxel utilizing combinations of ethanol, PEG 400 and water. Specifically, the formulations set forth in Table 9 were made and analyzed for their concentrations of its various constituents. The concentrations are determined by liquid chromatography and are presented as weight by volume figures. The concentration of ethanol is preferably two or less percent so as to avoid ethanol becoming an active ingredient in the formulation.
Another aqueous liquid or injectable formulation of paclitaxel is made utilizing ethanol, PEG 400 and water, and ethanol, Vitamin E TPGS, PEG400 and water. In making the first formulation, 100 mg of paclitaxel is added to 400 μl of ethanol in a pre-weighed 20 ml scintillation vial. The mixture of paclitaxel and ethanol is vortexed and heated in a 60 degree C. bath for ten minutes. Once the drug is completely solubilized, 20 ml of PEG 400 is then added to make the final paclitaxel concentration 5 mg/ml. […] In a separate experiment, a series of 20 ml scintillation vials containing Vitamin E TPGS are heated or warmed up in a 50 degree C. water bath for ten minutes. Concurrently, distilled water is also warmed in a 50 degree C. water bath. […]

Data set [3] in a line: Drug concentration in liquid formulations by liquid chromatography. To be noted: water, Vitamin E TPGS as excipient, ethanol less than two percent. The class given is physicochemical. As to the method: Table 7, shown below, summarizes the concentrations of the excipient, the co-solvents and the drug for four different liquid formulations.
Another liquid formulation of sirolimus comprises water and ethanol as co-solvents and Vitamin E TPGS as the excipient. The liquid formulation was created utilizing the following process. Two hundred milligrams of sirolimus and two grams of ethanol were added to a pre-weighed twenty milliliter scintillation vial. The vial was vortexed and sonicated until the sirolimus was completely dissolved. Approximately six hundred milligrams of Vitamin E TPGS was then added to the solution of ethanol and sirolimus. The vial was vortexed again until a clear yellowish solution was obtained. Nitrogen gas was then used to reduce the amount of ethanol in the vial to approximately two hundred twenty-nine milligrams. In a separate vial, three hundred milligrams of Vitamin E TPGS was dissolved in eleven milliliters of purified water while undergoing vortexing. The Vitamin E TPGS and water solution was then added to the first vial containing the sirolimus, Vitamin E TPGS and ethanol. The first vial was then vortexed vigorously and continuously for three minutes. […] The foam gradually disappeared after sitting at room temperature.
An aqueous formulation of CCl-779, a sirolimus analog, is prepared utilizing ethanol, Vitamin E TPGS and water. […]

For the compound `Cc1cc(C(C)(C)C)c(O)c(C(C)(C)C)c1` [BHT, butylated hydroxytoluene], the “drug degradation (percent drug content change)” value in data set [1] was “lessens drug degradation”.

Take `CC(=O)O[C@H]1C(=O)[C@@]2(C)[C@H]([C@H](OC(=O)c3ccccc3)[C@]3(O)C[C@H](OC(=O)[C@H](O)[C@@H](NC(=O)c4ccccc4)c4ccccc4)C(C)=C1C3(C)C)[C@]1(OC(C)=O)CO[C@@H]1C[C@@H]2O` [paclitaxel]: in data set [2], the “concentration relative to the solubility of paclitaxel in water” value was “about 1000 fold” and the “paclitaxel concentration of true aqueous liquid formulations” value was “up to 2.5 mg/ml”.

Turning to CCl-779, the “concentration in the final solution (HPLC assay)” value in data set [3] came to 15000 µg/mL.
